Results reported in patent US20150125452A1, “COMBINATION TREATMENTS COMPRISING C-MET ANTAGONISTS AND B-RAF ANTAGONISTS” (GENENTECH, INC., priority 2011, published 2015).
“Also recorded” adds a separate entry of the source.

How the values were obtained:
Format in all cases: cell-based, Human
[1] = tested on: AU565 HER2 amplified breast cancer cells; test: Syto 60 viability and long-term staining with lapatinib and ligands
Procedure: FIGS. 3A-3G: HGF promoted lapatinib resistance in HER2 amplified cell lines. […] HGF rescue is indicated, black squares indicates partial rescue as determined by the initial screen (FIG. 1B). […] Cells were treated every three days for the indicated times. […] FIG. 3D, Immunoblots showing the re-activation of pAKT and pERK in two MET positive (AU565, HCC1954) and one MET negative (BT474) HER2 amplified cell lines. […] FIG. 3E, Representative slides showing MET expression in HER2 positive (3+) breast cancer tissues. FIG. 3F, selection of higher MET expressing AU565 cells following 3× treatments with lapatinib (1 μM) and HGF (50 ng/mL). FIG. 3G. […] Cells were treated twice weekly for the indicated times.
AU565 sells were co-treated with lapatinib (1 μM) in combination with 10 ng/mL NRG1 or FGF. […] Cells were treated with the appropriate kinase inhibitors in the presence of HGF (50 ng/mL). Cells were then treated with either 100 nM PI3K inhibitor (BEZ235) or MAPK inhibitor (AZD6244). Error bars represent mean+/−s.e.m.
(§1) Cell viability was assessed using the nucleic acid stain Syto 60 (Invitrogen). Cells (3000-5000 per well) were seeded into 96 well plates and allowed to adhere overnight. The next day, cells were treated with (or without) 50 ng/mL RTK ligand and concomitantly exposed to an increasing concentration range of the relevant kinase inhibitor. Following 72 hours drug exposure, cells were fixed in 4% formaldehyde, stained with Syto 60 and cell number was assessed using an Odyssey scanner (Li-Cor). Cell viability was calculated by dividing the fluorescence obtained from the drug-treated cells by the fluorescence obtained from the control (no drug) treated cells.

SK-MEL-28 cells = test: Secreted factor screen, Cell Titer Glo; details: 5 μM PLX[…], 50 ng/mL factor, 72 h, 446 factors
Procedure: […] […] […] Error bars represent mean+/−s.e.m.
Following 72 h incubation, cell viability was determined using Cell Titer Glo (Promega).

[2] = tested on: H2228 EML4-ALK translocated NSCLC cells; test: Syto 60 viability and long-term staining with TAE684 and HGF
Procedure: Cells were co-treated with 50 ng/mL HGF. Error bars represent mean+/−s.e.m. […] FIG. 8C, Syto 60 staining of H2228 EML4-ALK translocated NSCLC cells treated with TAE684 (2 μM) in the presence and absence of HGF (50 ng/mL) as indicated. Cells were treated every 3 days for 9 days. FIG. 8D, Syto 60 staining of H358 EGF-like ligand-driven NSCLC cells treated with Erlotinib (5 μM) in the presence and absence of HGF (50 ng/mL) as indicated. Cells were treated every 3 days for 9 days.
FIG. 16: Syto 60 staining of H2228 EML4-ALK translocated NSCLC cells treated with TAE684 (2 μM) in the presence or absence of HGF (50 ng/mL) as indicated. Cells were treated every 3 days for 9 days.
as §1

HGF: recombinant human RTK ligand (MET ligand) purchased from Peprotech
MET expression of cell population after co-treatment ([1]; 9-day lapatinib and HGF co-treatment): increased MET expression
resistance to lapatinib on longer-term co-treatment ([1]; 12 days, lapatinib 1 μM, HGF 50 ng/mL): rapidly promoted resistance to lapatinib
effect of secreted factor on PLX[…] sensitivity (SK-MEL-28 cells): could attenuate PLX4032 sensitivity
effect of HGF on longer-term TAE684 treatment ([2]; TAE684 2 μM, HGF 50 ng/mL, every 3 days for 9 days): rescued; also recorded: prevented acquired resistance to TAE684
rescue from ALK inhibition by HGF at 72 hour time-point ([2]; TAE684, HGF, 72 h): not rescued from ALK inhibition
